# In patent US20180332881A1, “PRETERM INFANT FORMULA […] AND USES THEREOF” (Mead Johnson Nutrition Company, priority 2017, published 2018):
# Tested on: oligodendrocyte precursor cells (OPCs)
# Experiment: Differentiation of purified oligodendrocyte precursor cells (OPCs) into mature oligodendric cells (MBP / PDGFRα immunostaining)
# Format: cell-based, rat
# Conditions: 48 hours
# Method: The OPCs were purified from P7 rat brain cortices. Rodent brain cortices were diced and dissociated with papain at 37° C. After trituration, […] were resuspended in a panning buffer and incubated at room temperature sequentially on the three immunopanning dishes: Ran-2 and GalC were used for negative selection before positive selection with 04. OPCs were released from the panning dish using 0.05% Trypsin. OPCs were seeded onto PPL-coated coverslips at 200,000 per 25 mm circle coverslip in a chemically defined culture medium with PDGFa overnight.
# Sodium Butyrate (NaB) was dissolved in sterile water and added into culture medium the next day to reach desire concentration. OPC coverslips were placed into 6-well dishes, 1 ml of NaB-containing culture medium without PDGFα was added to each well. Cells were cultured for 48 hours before fixation and immunostaining. PDGFRα antibody identifies OPCs and MBP (myelin basic protein) antibody labels differentiated oligodendrocytes. Percentage of MBP-positive cells out of all PDGFRα- and MBP-positives cells were quantified.
# Examining a dose response for sodium butyrate on purified oligodendroglial cultures. Sodium butyrate was added to purified oligodendroglial cultures and cells were analyzed after 48 hours of treatment for effects on survival, proliferation and differentiation. Oligodendrocyte precursor cells were immunostained with PDGFRα shown in green, oligodendrocytes were immunostained with MBP in red, cell nuclei were labeled with DAPI in blue. Percentage of MBP-positive oligodendrocytes among all oligodendroglial cells was quantified at various concentrations of sodium butyrate. The asterisks represent significance based on Students t-test with the respective controls (*p<0.05, **p<0.01)
structure (smiles),measurement,setting,value
"CCCC(=O)[O-].[Na+] [sodium butyrate, Sodium Butyrate]",effect to promote OPC to differentiate into mature oligodendric cells (dose response),50 nM to 250 μM,dose-dependent manner
same,"number of oligodendric cells from OPC compared to the control (MBP immunohistochemistry, FIG. 7)",250 μM sodium butyrate,statistically significant increase
same,fold increase in the numbers of differentiated and matured oligodendric cells as compared to the control,"250 μM sodium butyrate, OPCs from P7 rat brain cortices",2.6 fold
same,increase in Oligo cells (percentage of MBP-positive cells) as compared to the control,"each of the concentrations tested (50 nM, 500 nM, 5 μM, 50 μM, 250 μM)",statistically significant increase
